Structures are written as SMILES. A value given as a limit tells only on which side of the number the result lay.

We go through 28 compounds from ChEMBL document CHEMBL1128738, “Sigma ligands with subnanomolar affinity and preference for the sigma 2 binding site. 1. 3-(omega-aminoalkyl)-1H-indoles” (J Med Chem, 1995).

Assay [1] deals with T1, 5-hydroxytryptamine receptor 1A (Rattus norvegicus, UniProt P19327).
T1 sequence (P19327 whole entry): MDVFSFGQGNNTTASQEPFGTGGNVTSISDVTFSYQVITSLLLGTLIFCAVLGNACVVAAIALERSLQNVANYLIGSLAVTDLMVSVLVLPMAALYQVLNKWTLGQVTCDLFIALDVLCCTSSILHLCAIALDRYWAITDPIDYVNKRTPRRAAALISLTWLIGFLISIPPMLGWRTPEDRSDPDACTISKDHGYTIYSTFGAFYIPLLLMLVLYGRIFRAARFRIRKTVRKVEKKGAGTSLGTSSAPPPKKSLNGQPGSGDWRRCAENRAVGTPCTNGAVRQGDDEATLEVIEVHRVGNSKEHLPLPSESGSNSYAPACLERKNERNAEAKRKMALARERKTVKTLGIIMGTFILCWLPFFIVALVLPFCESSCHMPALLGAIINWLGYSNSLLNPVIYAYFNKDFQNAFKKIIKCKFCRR
The assay can be described thus: Binding affinity towards 5-hydroxytryptamine 1A receptor binding site using [3H]8-OH-DPAT.

The target in assay [2] is 5-hydroxytryptamine receptor 2A (Rattus norvegicus, UniProt P14842). The assay can be described thus: Binding affinity towards 5-hydroxytryptamine 2A receptor binding site using [3H]ketanserin.
The target in assay [3] is T2, Adrenergic receptor alpha-1 (Rattus norvegicus, UniProt P15823+P23944+P43140).
T2 sequence (P15823 whole entry): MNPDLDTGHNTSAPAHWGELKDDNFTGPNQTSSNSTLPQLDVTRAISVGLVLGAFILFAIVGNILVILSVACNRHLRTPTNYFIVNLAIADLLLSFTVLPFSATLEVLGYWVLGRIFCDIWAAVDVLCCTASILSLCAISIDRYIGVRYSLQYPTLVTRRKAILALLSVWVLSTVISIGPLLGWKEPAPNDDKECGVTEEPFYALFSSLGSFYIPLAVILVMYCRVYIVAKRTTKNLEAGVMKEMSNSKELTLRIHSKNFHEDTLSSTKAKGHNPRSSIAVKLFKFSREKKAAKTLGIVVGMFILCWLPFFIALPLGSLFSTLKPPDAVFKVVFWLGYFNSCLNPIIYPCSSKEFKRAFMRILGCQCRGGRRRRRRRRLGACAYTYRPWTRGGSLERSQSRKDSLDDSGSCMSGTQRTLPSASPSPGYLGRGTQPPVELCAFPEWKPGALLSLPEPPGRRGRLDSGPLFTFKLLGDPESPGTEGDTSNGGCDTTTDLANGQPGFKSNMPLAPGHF
T2 sequence (P23944 whole entry): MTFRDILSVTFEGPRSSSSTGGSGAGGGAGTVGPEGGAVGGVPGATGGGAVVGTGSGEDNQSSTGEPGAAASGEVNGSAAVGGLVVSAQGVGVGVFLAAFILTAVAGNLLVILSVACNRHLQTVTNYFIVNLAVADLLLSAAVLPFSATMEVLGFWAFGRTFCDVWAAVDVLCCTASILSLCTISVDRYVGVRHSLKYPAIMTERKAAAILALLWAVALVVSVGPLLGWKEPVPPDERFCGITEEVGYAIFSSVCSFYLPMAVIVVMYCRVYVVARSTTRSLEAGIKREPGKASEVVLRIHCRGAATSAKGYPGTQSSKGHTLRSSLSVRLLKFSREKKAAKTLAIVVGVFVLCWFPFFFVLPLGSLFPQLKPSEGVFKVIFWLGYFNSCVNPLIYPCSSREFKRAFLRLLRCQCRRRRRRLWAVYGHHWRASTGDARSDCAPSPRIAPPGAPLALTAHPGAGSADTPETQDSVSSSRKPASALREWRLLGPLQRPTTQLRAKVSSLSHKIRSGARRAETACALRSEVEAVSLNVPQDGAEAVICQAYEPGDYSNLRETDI
T2 sequence (P43140 whole entry): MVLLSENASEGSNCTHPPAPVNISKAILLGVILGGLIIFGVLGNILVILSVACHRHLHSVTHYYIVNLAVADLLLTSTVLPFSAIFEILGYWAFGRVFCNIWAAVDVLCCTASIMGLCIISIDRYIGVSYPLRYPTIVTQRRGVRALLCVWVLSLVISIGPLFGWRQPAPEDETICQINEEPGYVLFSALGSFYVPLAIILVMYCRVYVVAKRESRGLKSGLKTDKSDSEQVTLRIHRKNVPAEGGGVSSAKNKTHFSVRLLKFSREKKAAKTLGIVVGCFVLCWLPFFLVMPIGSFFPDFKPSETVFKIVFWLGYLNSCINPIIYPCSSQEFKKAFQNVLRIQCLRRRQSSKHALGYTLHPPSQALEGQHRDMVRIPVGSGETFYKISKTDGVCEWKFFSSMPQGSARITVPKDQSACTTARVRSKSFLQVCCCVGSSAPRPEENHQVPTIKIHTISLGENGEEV
The assay can be described thus: Binding affinity towards Alpha-1 adrenergic receptor binding site using [3H]prazosin. It counts as protein assay.

The target of the next assay is D(2) dopamine receptor (Rattus norvegicus, UniProt P61169). The assay can be described thus: Binding affinity towards Dopamine receptor D2 binding site using [3H]spiroperidol.
In assay [4] the target is Sigma non-opioid intracellular receptor 1 (Rattus norvegicus, UniProt Q9R0C9). The assay can be described thus: Binding affinity towards sigma receptor binding site 1 using [3H](+)-pentazocine.
Another assay addresses Sigma 2 receptor. The assay can be described thus: Binding affinity towards sigma receptor binding site 2 using [3H]DTG of whole rat brain homogenates except cerebellum. It is filed as tissue-based.
In assay [5] the target is Sigma non-opioid intracellular receptor 1 (Rattus norvegicus) (UniProt Q9R0C9). The assay can be described thus: Ratio of the binding affinities for sigma-1 and sigma 2 type receptors, ratio of IC50.
Assay [6] deals with T2, Adrenergic receptor alpha-1. The assay can be described thus: Binding affinity for Alpha-1 adrenergic receptor with [3H]prazosin. It is filed as protein assay.

Sequence of Sigma non-opioid intracellular receptor 1 (Rattus norvegicus) (Q9R0C9 whole entry): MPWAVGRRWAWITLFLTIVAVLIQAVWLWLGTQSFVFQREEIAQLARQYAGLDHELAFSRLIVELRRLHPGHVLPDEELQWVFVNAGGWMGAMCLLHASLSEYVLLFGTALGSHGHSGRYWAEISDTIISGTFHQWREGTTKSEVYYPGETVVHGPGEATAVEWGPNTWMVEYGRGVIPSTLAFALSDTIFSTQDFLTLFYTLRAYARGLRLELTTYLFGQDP
Sequence of Sigma non-opioid intracellular receptor 1 (Q9R0C9 whole entry): as above
Sequence of D(2) dopamine receptor (P61169 whole entry): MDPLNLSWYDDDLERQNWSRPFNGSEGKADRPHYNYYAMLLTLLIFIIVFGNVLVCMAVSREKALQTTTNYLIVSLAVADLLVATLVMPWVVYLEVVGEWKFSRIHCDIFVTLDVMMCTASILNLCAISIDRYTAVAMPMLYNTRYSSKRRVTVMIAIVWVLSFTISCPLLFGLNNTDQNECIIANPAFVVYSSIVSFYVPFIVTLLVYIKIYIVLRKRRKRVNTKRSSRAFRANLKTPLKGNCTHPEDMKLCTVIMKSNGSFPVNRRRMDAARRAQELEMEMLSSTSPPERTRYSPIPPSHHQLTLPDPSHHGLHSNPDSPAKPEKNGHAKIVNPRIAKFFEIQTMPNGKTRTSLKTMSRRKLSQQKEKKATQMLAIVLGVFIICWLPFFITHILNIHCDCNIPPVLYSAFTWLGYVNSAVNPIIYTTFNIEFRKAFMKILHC
Sequence of 5-hydroxytryptamine receptor 2A (P14842 whole entry): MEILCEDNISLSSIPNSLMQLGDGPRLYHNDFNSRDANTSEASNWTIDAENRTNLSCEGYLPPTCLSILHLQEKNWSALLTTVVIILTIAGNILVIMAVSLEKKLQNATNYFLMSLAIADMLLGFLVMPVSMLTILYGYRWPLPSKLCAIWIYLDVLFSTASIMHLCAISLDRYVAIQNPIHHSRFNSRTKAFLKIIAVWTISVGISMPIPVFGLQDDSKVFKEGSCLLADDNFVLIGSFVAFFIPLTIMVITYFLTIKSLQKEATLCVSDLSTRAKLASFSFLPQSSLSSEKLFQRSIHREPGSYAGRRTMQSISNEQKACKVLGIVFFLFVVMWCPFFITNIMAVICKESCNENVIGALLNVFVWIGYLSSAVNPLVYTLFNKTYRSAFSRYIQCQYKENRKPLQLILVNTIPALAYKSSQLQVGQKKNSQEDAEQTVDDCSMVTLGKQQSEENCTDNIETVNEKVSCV

As a reminder, the IC50 is the concentration that gives 50% inhibition. In the case of `Fc1ccc(N2CCN(CCCCc3cn(-c4ccc(F)cc4)c4ccccc34)CC2)cc1`, the IC50 in assay [1] was above 10000 nM; in assay [2] it was 250 nM; in assay [3], 420 nM; on D(2) dopamine receptor, 3000 nM; in assay [4], 440 nM; at Sigma 2 receptor, 7.5 nM.

On to `Fc1ccc(-n2cc(CCN3CCC4(CC3)OCc3ccccc34)c3ccccc32)cc1`, for which the figures for the IC50 (in assay [4]; at Sigma 2 receptor) were 15 nM and 3 nM, respectively. In assay [5], the Ratio is 5.

Consider `c1csc(-n2cc(CCCCN3CCC4(CC3)OCc3ccccc34)c3ccccc32)c1`, for which the IC50 in assay [4] amounted to 7.7 nM; on Sigma 2 receptor, 0.24 nM. Also, the Ratio in assay [5] came out at 32.

On to `CC(=O)n1cc(CCCCN2CCC3(CC2)OCc2ccccc23)c2ccccc21`, for which the IC50 in assay [4] was 5.7 nM; at Sigma 2 receptor, 0.21 nM. The Ratio in assay [5] worked out at 27.

For `c1ccc2c(c1)COC21CCN(CCCCc2cn(-c3ccncc3)c3ccccc23)CC1`, the IC50 in assay [4] is 14 nM; at Sigma 2 receptor, 0.41 nM. Further, the Ratio in assay [5] came to 34.

As to `Fc1ccc(C2CCN(CCCCc3cn(-c4ccc(F)cc4)c4ccccc34)CC2)cc1`, the IC50 was determined as 22000 nM in assay [1]; 270 nM in assay [2]; 220 nM in assay [3]; 4200 nM at D(2) dopamine receptor; 0.27 nM at Sigma 2 receptor.

On to `Fc1ccc(N2CCN(CCCCc3c[nH]c4ccccc34)CC2)cc1`, for which the IC50 in assay [1] worked out at 37 nM; in assay [2], 14 nM; in assay [3] it was 12 nM; on D(2) dopamine receptor it was 180 nM; in assay [4], 5.6 nM; on Sigma 2 receptor, 1.3 nM.

As for `c1ccc2c(c1)COC21CCN(CCCCc2cn(-c3ccsc3)c3ccccc23)CC1`, the IC50 in assay [4] turned out to be 7 nM; on Sigma 2 receptor it was 0.25 nM. In assay [5], the Ratio is 28.

For `Fc1ccc(C2CCN(CCCCc3c[nH]c4ccccc34)CC2)cc1`, the IC50 was 27 nM in assay [1]; 34 nM in assay [2]; 20 nM in assay [3]; 160 nM on D(2) dopamine receptor; 1.4 nM in assay [4]; 4 nM on Sigma 2 receptor.

As to `COc1ccccc1N1CCN(CCCCc2c[nH]c3ccccc23)CC1`, the IC50 in assay [2] worked out at 150 nM; in assay [3], 2.7 nM; at D(2) dopamine receptor, 15 nM; in assay [4], 14 nM; at Sigma 2 receptor, 21 nM.

For the compound `Fc1ccc(-n2cc(CCCN3CCC4(CC3)OCc3ccccc34)c3ccccc32)cc1`, the results for the IC50 (in assay [4]; at Sigma 2 receptor) were 10 nM and 2.8 nM, respectively. Besides, the Ratio in assay [5] was determined as 3.6.

For `Fc1ccc(C2=CC3CCC(C2)N3CCCCc2cn(-c3ccc(F)cc3)c3ccccc23)cc1` (stereo not given), the IC50 in assay [1] is above 10000 nM; in assay [2], 3700 nM; in assay [3] it was 350 nM; at D(2) dopamine receptor it was 8000 nM; in assay [4], 1200 nM; on Sigma 2 receptor, 2.5 nM.

As to `c1ccc(C2CCN(CCCCc3c[nH]c4ccccc34)CC2)cc1`, the IC50 stood at 110 nM in assay [1]; 25 nM in assay [2]; 14 nM in assay [3]; 45 nM at D(2) dopamine receptor; 1.5 nM in assay [4]; 0.48 nM at Sigma 2 receptor.

For `Fc1ccc(-n2cc(CN3CCC4(CC3)OCc3ccccc34)c3ccccc32)cc1`, the IC50 worked out at 3 nM in assay [4] and 4.7 nM at Sigma 2 receptor. In addition, the Ratio in assay [5] came to 0.64.

`c1ccc(CN2CCC3(CCCc4ccccc43)CC2)cc1`: the IC50 in assay [1] was above 100000 nM; in assay [2], 7100 nM; in assay [3], 1000 nM; in assay [4], 0.26 nM; at Sigma 2 receptor, 12 nM.

Consider `Fc1ccc(-n2cc(CCCCN3CCC(c4ccccc4)CC3)c3ccccc32)cc1`, for which the half-maximal inhibitory concentration (IC50) in assay [4] turned out to be 44 nM; on Sigma 2 receptor, 0.44 nM. In addition, the Ratio in assay [5] is 100.

As to `OC(CCCN1CCN(c2ncc(F)cn2)CC1)c1ccc(F)cc1` (stereo not given) [BMY-14802], the IC50 amounted to 830 nM in assay [2], 1500 nM in assay [3] and 8400 nM at D(2) dopamine receptor.

With `Cc1ccc(S(=O)(=O)n2cc(CCCCN3CCC4(CC3)OCc3ccccc34)c3ccccc32)cc1`, the IC50 in assay [4] worked out at 10 nM; on Sigma 2 receptor, 0.17 nM. Also, the Ratio in assay [5] was found to be 59.

Take `Fc1ccc(C2=CCN(CCCCc3c[nH]c4ccccc34)CC2)cc1`: the half-maximal inhibitory concentration (IC50) in assay [1] came to 71 nM; in assay [2] it was 27 nM; in assay [3] it was 24 nM; on D(2) dopamine receptor it was 51 nM; in assay [4], 7.5 nM; at Sigma 2 receptor, 2.3 nM.

With `CS(=O)(=O)n1cc(CCCCN2CCC3(CC2)OCc2ccccc23)c2ccccc21`, the figures for the IC50 (in assay [4]; at Sigma 2 receptor) were 1.3 nM and 0.05 nM, respectively. In assay [5], the Ratio amounted to 26.

Regarding `Fc1ccc(-n2cc(CCCCN3CCN(c4ccccc4)CC3)c3ccccc32)cc1`, the values for the IC50 (in assay [4]; on Sigma 2 receptor) were 27 nM and 0.69 nM, respectively. In addition, the Ratio in assay [5] worked out at 39.

As to `O=C(CC1CCN(CC2CC2)CC1)c1ccc(F)cc1`, the IC50 in assay [1] amounted to 44000 nM; in assay [2], 66 nM; in assay [3] it was 21 nM.

For the compound `c1ccc(Cn2cc(CCCCN3CCC4(CC3)OCc3ccccc34)c3ccccc32)cc1`, the IC50 in assay [4] was found to be 5.2 nM; on Sigma 2 receptor, 0.48 nM. The Ratio in assay [5] was 11.

Turning to `Cn1cc(CCCCN2CCC3(CC2)OCc2ccccc23)c2ccccc21`, the IC50 in assay [4] was determined as 2.1 nM; at Sigma 2 receptor, 0.3 nM. Moreover, the Ratio in assay [5] was 7.

Consider `c1ccc2c(c1)COC21CCN(CCCCc2c[nH]c3ccccc23)CC1`, for which the IC50 in assay [1] was 130 nM; in assay [2] it was 360 nM; in assay [3], 30 nM; on D(2) dopamine receptor, 1300 nM; in assay [4], 2.5 nM; at Sigma 2 receptor, 0.41 nM.

As for `Fc1ccc(-n2cc(CCCCN3CCC4(CC3)OCc3ccccc34)c3ccccc32)cc1` [SIRAMESINE], the IC50 in assay [1] was found to be 21000 nM; in assay [2], 2000 nM; in assay [6], 330 nM; on D(2) dopamine receptor it was 800 nM.

As for `c1ccc2c(c1)COC21CCN(CCCCc2cn(-c3nccs3)c3ccccc23)CC1`, the IC50 in assay [4] is 14 nM; on Sigma 2 receptor, 0.19 nM. Moreover, the Ratio in assay [5] was determined as 74.

For `COc1ccccc1C1CCN(CCCCc2c[nH]c3ccccc23)CC1`, the IC50 came to 56 nM in assay [1]; 83 nM in assay [2]; 11 nM in assay [3]; 20 nM on D(2) dopamine receptor; 4.5 nM in assay [4]; 3.3 nM on Sigma 2 receptor.
